Reference: the supplement of paper PMC10307832

Assays:
Experiment in all cases: relative viability (nuclei count vs DMSO), 5 days (fraction); higher = more cells survive
[1] = compound: CC1=CC(=CC=C1)NC2=NC(=CS2)C3=CC=NC=C3 + CS(=O)(=O)CCNCc1ccc(-c2ccc3ncnc(Nc4ccc(OCc5cccc(F)c5)c(Cl)c4)c3c2)o1 [Lapatinib] (partner 2 µM)
In short: (§1)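 Lung cancer cell lines, seeded in 1536-well plates, were treated the following day by pin tool with a single drug or with five library-drug doses (not always all listed) in √10 steps on top of a fixed anchor-drug dose. Cells were fixed and nuclei stained in one step after 5 days, and nuclei were counted. Relative viability is the nuclei count for treated wells divided by that for vehicle wells, reported as medians of duplicate plates.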

Masitinib + Tozasertib = compound: Cc1ccc(NC(=O)c2ccc(CN3CCN(C)CC3)cc2)cc1Nc1nc(-c2cccnc2)cs1 [Masitinib] + Cc1cc(Nc2cc(N3CCN(C)CC3)nc(Sc3ccc(NC(=O)C4CC4)cc3)n2)n[nH]1 [Tozasertib] (partner 0.1 µM)
In short: as §1

Masitinib + Alpelisib = compound: Cc1ccc(NC(=O)c2ccc(CN3CCN(C)CC3)cc2)cc1Nc1nc(-c2cccnc2)cs1 [Masitinib] + Cc1nc(NC(=O)N2CCC[C@H]2C(N)=O)sc1-c1ccnc(C(C)(C)C(F)(F)F)c1 [Alpelisib] (partner 2 µM)
In short: as §1

Masitinib + Olaparib = compound: Cc1ccc(NC(=O)c2ccc(CN3CCN(C)CC3)cc2)cc1Nc1nc(-c2cccnc2)cs1 [Masitinib] + O=C(c1cc(Cc2n[nH]c(=O)c3ccccc23)ccc1F)N1CCN(C(=O)C2CC2)CC1 [Olaparib] (partner 8 µM)
In short: as §1

Cell Line	relative viability ([1]; first compound 0.08 µM)	relative viability ([1]; first compound 0.253 µM)	relative viability ([1]; first compound 0.8 µM)	relative viability ([1]; first compound 2.53 µM)	relative viability ([1]; first compound 8 µM)	relative viability (Masitinib + Tozasertib; first compound 0.01 µM)	relative viability (Masitinib + Tozasertib; first compound 0.03162 µM)	relative viability (Masitinib + Tozasertib; first compound 0.1 µM)	relative viability (Masitinib + Tozasertib; first compound 0.3162 µM)	relative viability (Masitinib + Tozasertib; first compound 1 µM)	relative viability (Masitinib + Alpelisib; first compound 0.01 µM)	relative viability (Masitinib + Alpelisib; first compound 0.03162 µM)	relative viability (Masitinib + Alpelisib; first compound 0.1 µM)	relative viability (Masitinib + Alpelisib; first compound 0.3162 µM)	relative viability (Masitinib + Alpelisib; first compound 1 µM)	relative viability (Masitinib + Olaparib; first compound 0.01 µM)	relative viability (Masitinib + Olaparib; first compound 0.03162 µM)	relative viability (Masitinib + Olaparib; first compound 0.1 µM)	relative viability (Masitinib + Olaparib; first compound 0.3162 µM)	relative viability (Masitinib + Olaparib; first compound 1 µM)
NCI-H2087	0.823	0.788	0.846	1.11	0.829	0.317	0.22	0.239	0.211	0.236	1.07	1.05	1.19	1.15	1.08	0.73	0.583	0.63	0.523	0.7
NCI-H2126	0.593	0.667	0.68	0.594	0.572	0.938	0.819	0.926	0.627	0.828	0.802	0.766	0.832	0.661	0.712	0.916	0.965	1	0.992	0.991
NCI-H2170	0.259	0.255	0.255	0.275	0.264	0.778	0.685	0.746	0.739	0.671	0.912	0.688	0.902	0.784	0.801	0.546	0.698	0.672	0.576	0.559
NCI-H2228	0.948	1.11	0.884	0.823	0.883	0.242	0.199	0.232	0.217	0.221	0.897	0.708	0.835	0.685	0.844	0.756	0.589	0.622	0.548	0.661
NCI-H2347	0.731	0.767	0.635	0.95	0.757	0.379	0.457	0.536	0.563	0.394	0.981	1.14	1.01	1.13	1.05	0.507	0.591	0.597	0.621	0.53
NCI-H2405	0.853	1	0.919	0.936	0.813	0.759	0.729	0.725	0.631	0.635	0.838	0.945	0.896	0.737	0.802	0.78	0.816	0.873	0.722	0.827
NCI-H3122	1.05	1.08	1.05	1.09	1.08	–	0.502	–	0.387	0.417	0.87	0.758	0.785	0.899	0.821	0.64	0.604	0.703	0.589	0.615
PC-3 [JPC-3]	0.36	0.375	0.453	0.362	0.467	0.879	0.782	0.917	0.824	0.878	1.01	1.03	0.978	1.03	1.01	0.985	1.11	1.22	0.932	1.11
PC-14	0.295	0.258	0.338	0.312	0.292	0.5	0.563	0.512	0.482	0.478	0.915	0.865	1.11	1.01	0.846	0.277	0.256	0.249	0.232	0.204
RERF-LC-KJ	0.73	0.766	0.693	0.741	0.728	0.558	0.41	0.492	0.465	0.336	0.865	0.762	0.917	0.842	0.738	0.935	0.916	0.978	0.672	0.852
SK-LU-1	0.994	1.05	–	0.835	0.937	0.349	0.299	0.319	0.35	0.292	1.12	1.14	0.984	1.31	1.03	0.419	0.486	0.436	0.524	0.497
SK-MES-1	0.449	0.416	0.378	0.432	0.369	1.02	0.907	0.925	0.677	0.81	1.07	0.946	1.08	0.921	0.732	0.775	0.761	0.798	0.629	0.653
SW 1573	1.13	0.977	1.15	1.38	1.08	0.133	0.144	0.213	0.15	0.135	0.89	0.768	0.873	0.831	0.66	0.505	0.472	0.591	0.431	0.453
